From patent publication US20250163038A1, “CBL-B MODULATORS AND USES THEREOF” (Nimbus Clio, Inc., priority 2021, published 2025) come the findings set out here.

pEC50, pIC50: −log10 of the molar value. Where two headings read alike, the source gives them in different places.

Experiment [1] deals with Recombinant human Cbl-b (aa 36-427) (Homo sapiens, UniProt Q13191). Description: Cbl-b Biochemical Assay (TR-FRET). Conditions: read-out: TR-FRET hCbl-b IC50. (In general: Time-resolved FRET reads energy transfer from a long-lived donor to a nearby acceptor.)
Experiment [2] relates to Jurkat (clone E6-1) cells with NFAT luciferase reporter. Description: Jurkat reporter assay (NFAT Luciferase). It counts as cell-based. To be noted: Homo sapiens; for pEC50: Jurkat NFAT luciferase reporter cells, anti-CD3 stimulation, 6 hr, read-out: Jurkat NFAT EC50; for EC50: Jurkat, 6 h, read-out: Jurkat NFAT EC50 (μM).
For experiment [3], the target named is T1, Recombinant human c-Cbl (aa 47-435) (Homo sapiens, UniProt P22681).
T1 sequence (P22681 47-435): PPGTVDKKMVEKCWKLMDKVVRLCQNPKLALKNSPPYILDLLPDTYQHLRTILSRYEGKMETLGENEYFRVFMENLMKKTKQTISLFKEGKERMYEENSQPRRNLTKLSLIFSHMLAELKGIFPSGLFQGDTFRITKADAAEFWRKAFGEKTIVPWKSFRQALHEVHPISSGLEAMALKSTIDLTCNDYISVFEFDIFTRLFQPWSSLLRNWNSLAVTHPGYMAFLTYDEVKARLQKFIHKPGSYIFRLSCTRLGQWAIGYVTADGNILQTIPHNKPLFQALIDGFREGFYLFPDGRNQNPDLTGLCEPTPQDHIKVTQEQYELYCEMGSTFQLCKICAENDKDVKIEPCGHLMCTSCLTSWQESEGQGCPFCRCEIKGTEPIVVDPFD
Nature of the experiment: c-Cbl Biochemical Assay (TR-FRET). To be noted: hc-Cbl Biochemical Assay (TR-FRET); read-out: TR-FRET hcCbl IC50.

Sequence of Recombinant human Cbl-b (aa 36-427) (Q13191 36-427): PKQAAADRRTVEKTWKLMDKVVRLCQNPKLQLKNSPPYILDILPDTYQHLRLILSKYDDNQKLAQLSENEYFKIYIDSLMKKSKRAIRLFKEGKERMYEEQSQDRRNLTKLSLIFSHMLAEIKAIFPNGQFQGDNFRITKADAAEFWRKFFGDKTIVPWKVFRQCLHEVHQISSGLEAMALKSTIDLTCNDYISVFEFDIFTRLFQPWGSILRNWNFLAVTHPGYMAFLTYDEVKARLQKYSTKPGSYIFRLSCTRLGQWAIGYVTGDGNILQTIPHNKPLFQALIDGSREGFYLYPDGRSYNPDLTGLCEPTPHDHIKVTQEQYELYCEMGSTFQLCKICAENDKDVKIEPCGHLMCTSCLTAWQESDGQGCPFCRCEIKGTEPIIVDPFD

In general, pIC50 refers to the IC50 on a negative log10 scale, so that one unit is a factor of ten. By pEC50 is commonly meant the negative decadic logarithm of the EC50, by convention in mol/L. Consider `COCCNCc1cc(F)c2oc(-c3cc(-c4ccc(F)cc4-c4nncn4C)cc(C4CC4)n3)nc2c1` [AHB-1, [(2-{6-cyclopropyl-4-[4-fluoro-2-(4-methyl-1,2,4-triazol-3-yl)phenyl]pyridin-2-yl}-7-fluoro-1,3-benzoxazol-5-yl)methyl](2-methoxyethyl)amine], for which the pIC50 in experiment [1] and in experiment [3] was greater than 6.70 throughout. For the same compound, in experiment [2], the pEC50 is greater than 6.70.

For `COC(=O)c1cc(F)c2oc(-c3cc(-c4ccc(C#N)cc4-c4nncn4C)cc(C4CC4)n3)nc2c1` [AHC-1, methyl 2-{4-[4-cyano-2-(4-methyl-1,2,4-triazol-3-yl)phenyl]-6-cyclopropylpyridin-2-yl}-7-fluoro-1,3-benzoxazole-5-carboxylate], the results for the pIC50 in experiment [1] and in experiment [3] were 6.00 to 6.70 and 5.00 to 6.00, respectively. The pEC50 in experiment [2] was 5.00 to 6.00.

In the case of `Cn1cnnc1-c1cc(C#N)ccc1-c1cc(-c2nc3cc(CO)cc(F)c3o2)nc(C2CC2)c1` [AHD-1, 4-{2-cyclopropyl-6-[7-fluoro-5-(hydroxymethyl)-1,3-benzoxazol-2-yl]pyridin-4-yl}-3-(4-methyl-1,2,4-triazol-3-yl) benzonitrile], the pIC50 is 6.00 to 6.70 in experiment [1] and 5.00 to 6.00 in experiment [3]. Also, the pEC50 in experiment [2] is 5.00 to 6.00.

Take `Cn1cnnc1-c1cc(C#N)ccc1-c1cc(-c2nc3cc(CNCC4CCC4)cc(F)c3o2)nc(C2CC2)c1` [AHE-2, 4-[2-(5-{[(cyclobutylmethyl)amino]methyl}-7-fluoro-1,3-benzoxazol-2-yl)-6-cyclopropylpyridin-4-yl]-3-(4-methyl-1,2,4-triazol-3-yl) benzonitrile]: the pIC50 in experiment [1] and in experiment [3] was greater than 6.70 each time. In addition, the pEC50 in experiment [2] is greater than 6.70.

As to `CO[C@@H](C)CNCc1cc(C)c2oc(-c3cc(-c4ccc(F)cc4-c4nncn4C)cc(C4CC4)n3)nc2c1` [AHF-1, [(2-{6-cyclopropyl-4-[4-fluoro-2-(4-methyl-1,2,4-triazol-3-yl)phenyl]pyridin-2-yl}-7-methyl-1,3-benzoxazol-5-yl)methyl][(2S)-2-methoxypropyl]amine], the pIC50 in experiment [1] and in experiment [3] was greater than 6.70 in each case. In addition, the pEC50 in experiment [2] was greater than 6.70.

For the compound `COCCNCc1cc2nc(-c3cc(-c4ccc(F)cc4-c4nncn4C)cc(C4CC4)n3)oc2c(C)c1F` [AHG-1, [(2-{6-cyclopropyl-4-[4-fluoro-2-(4-methyl-1,2,4-triazol-3-yl)phenyl]pyridin-2-yl}-6-fluoro-7-methyl-1,3-benzoxazol-5-yl)methyl](2-methoxyethyl)amine], the pIC50 in experiment [1] and in experiment [3] was greater than 6.70 in each case. For the same compound, the pEC50 in experiment [2] was greater than 6.70.

What is called EC50 is the concentration at which the effect is half-maximal. Regarding `CN(C)Cc1cc2nc(-c3cc(-c4ccc(F)cc4-c4nncn4C)cc(C4CC4)n3)oc2c(F)c1F` [AHH-3, [(2-{6-cyclopropyl-4-[4-fluoro-2-(4-methyl-1,2,4-triazol-3-yl)phenyl]pyridin-2-yl}-6,7-difluoro-1,3-benzoxazol-5-yl)methyl]dimethylamine], the negative logarithm of the IC50 (pIC50) in experiment [1] is greater than 6.70; in experiment [3] it was 6.00 to 6.70. Also, the EC50 in experiment [2] lay within 1 to 10 µM.

For the compound `Cn1cnnc1-c1cc(Cl)ccc1-c1cc(-c2nc3cc(CNCC4(O)CCC4)cc(F)c3o2)nc(C2CC2)c1` [AHI-5, 1-({[(2-{4-[4-chloro-2-(4-methyl-1,2,4-triazol-3-yl)phenyl]-6-cyclopropylpyridin-2-yl}-7-fluoro-1,3-benzoxazol-5-yl)methyl]amino}methyl)cyclobutan-1-ol], the pIC50 in experiment [1] and in experiment [3] was greater than 6.70 each time. For the same compound, the pEC50 in experiment [2] is greater than 6.70.

Take `Cc1c(F)c(CNCC2(O)CCC2)cc2nc(-c3cc(-c4ccc(F)cc4-c4nncn4C)cc(C4CC4)n3)oc12` [AHJ-1, 1-({[(2-{6-cyclopropyl-4-[4-fluoro-2-(4-methyl-1,2,4-triazol-3-yl)phenyl]pyridin-2-yl}-6-fluoro-7-methyl-1,3-benzoxazol-5-yl)methyl]amino}methyl)cyclobutan-1-ol]: the pIC50 in experiment [1] and in experiment [3] was greater than 6.70 in each case. Further, the pEC50 in experiment [2] was greater than 6.70.

For the compound `Cc1c(F)c(CNCC(C)(C)O)cc2nc(-c3cccc(-c4ccc(F)cc4-c4nncn4C)c3)oc12` [AHK-4, 1-[({6-fluoro-2-[4′-fluoro-2′-(4-methyl-1,2,4-triazol-3-yl)-[1,1′-biphenyl]-3-yl]-7-methyl-1,3-benzoxazol-5-yl}methyl)amino]-2-methylpropan-2-ol], the pIC50 in experiment [1] and in experiment [3] was greater than 6.70 each time. For the same compound, the negative-log EC50 (pEC50) in experiment [2] was greater than 6.70.

In the case of `Cn1cnnc1-c1cc(F)ccc1-c1cc(-c2nc3cc(C(C)(C)O)c(F)c(F)c3o2)nc(C2CC2)c1` [AHL-7, 2-(2-{6-cyclopropyl-4-[4-fluoro-2-(4-methyl-1,2,4-triazol-3-yl)phenyl]pyridin-2-yl}-6,7-difluoro-1,3-benzoxazol-5-yl)propan-2-ol], the pIC50 in experiment [1] is 6.00 to 6.70; in experiment [3], 5.00 to 6.00. Also, the pEC50 in experiment [2] is 5.00 to 6.00.

On to `Cn1cnnc1-c1cc(F)ccc1-c1cc(-c2nc3cc(CN)cc(F)c3o2)nc(C2CC2)c1` [AHM-3, 1-(2-{6-cyclopropyl-4-[4-fluoro-2-(4-methyl-1,2,4-triazol-3-yl)phenyl]pyridin-2-yl}-7-fluoro-1,3-benzoxazol-5-yl)methanamine], for which the negative-log IC50 (pIC50) is greater than 6.70 in experiment [1] and 6.00 to 6.70 in experiment [3]. Further, the half-maximal effective concentration (EC50) in experiment [2] fell in the range of 1 to 10 µM.

For `COC(C)(C)CNCc1cc(C(F)(F)F)c2oc(-c3cccc(-c4ccc(F)cc4-c4nncn4C)c3)nc2c1` [AI-2, N-((2-(4′-Fluoro-2′-(4-methyl-4H-1,2,4-triazol-3-yl)-[1,1′-biphenyl]-3-yl)-7-(trifluoromethyl)benzo[d]oxazol-5-yl)methyl)-2-methoxy-2-methylpropan-1-amine], the pIC50 was greater than 6.70 in experiment [1] and 5.00 to 6.00 in experiment [3]. For the same compound, the pEC50 in experiment [2] was 6.00 to 6.70.

As for `Cn1cnnc1-c1cc(F)ccc1-c1cccc(-c2nc3cc(CNCC4(O)CCCC4)cc(C(F)(F)F)c3o2)c1` [AK-2, 1-((((2-(4′-Fluoro-2′-(4-methyl-4H-1,2,4-triazol-3-yl)-[1,1′-biphenyl]-3-yl)-7-(trifluoromethyl)benzo[d]oxazol-5-yl)methyl)amino)methyl)cyclopentan-1-ol, Acetate], the pIC50 was greater than 6.70 in experiment [1] and 5.00 to 6.00 in experiment [3]. Besides, the negative-log EC50 (pEC50) in experiment [2] is 6.00 to 6.70.

For the compound `C[C@@H](O)CNCc1cc(C(F)(F)F)c2oc(-c3cccc(-c4ccc(F)cc4-c4nncn4C)c3)nc2c1` [AL-2, (R)-1-(((2-(4′-Fluoro-2′-(4-methyl-4H-1,2,4-triazol-3-yl)-[1,1′-biphenyl]-3-yl)-7-(trifluoromethyl)benzo[d]oxazol-5-yl)methyl)amino)propan-2-ol], the results for the pIC50 in experiment [1] and in experiment [3] were greater than 6.70 and 5.00 to 6.00, respectively. Also, the pEC50 in experiment [2] was 6.00 to 6.70.

Consider `C[C@H](O)CNCc1cc(C(F)(F)F)c2oc(-c3cccc(-c4ccc(F)cc4-c4nncn4C)c3)nc2c1` [AM-2, (S)-1-(((2-(4′-Fluoro-2′-(4-methyl-4H-1,2,4-triazol-3-yl)-[1,1′-biphenyl]-3-yl)-7-(trifluoromethyl)benzo[d]oxazol-5-yl)methyl)amino)propan-2-ol], for which the pIC50 in experiment [1] is greater than 6.70; in experiment [3], 5.00 to 6.00. Moreover, the pEC50 in experiment [2] was 6.00 to 6.70.

As for `Cn1cnnc1-c1cc(F)ccc1-c1cccc(-c2nc3cc(CNCCO)cc(C(F)(F)F)c3o2)c1` [AN-2, 2-(((2-(4′-Fluoro-2′-(4-methyl-4H-1,2,4-triazol-3-yl)-[1,1′-biphenyl]-3-yl)-7-(trifluoromethyl)benzo[d]oxazol-5-yl)methyl)amino)ethan-1-ol], the figures for the pIC50 in experiment [1] and in experiment [3] were greater than 6.70 and 5.00 to 6.00, respectively. Moreover, in experiment [2], the pEC50 was 5.00 to 6.00.

On to `Cn1cnnc1-c1cc(F)ccc1-c1cccc(-c2nc3cc(CNCC(C)(C)O)ccc3o2)c1` [AO-2, 1-(((2-(4′-Fluoro-2′-(4-methyl-4H-1,2,4-triazol-3-yl)-[1,1′-biphenyl]-3-yl)benzo[d]oxazol-5-yl)methyl)amino)-2-methylpropan-2-ol], for which the pIC50 in experiment [1] is greater than 6.70; in experiment [3], 5.00 to 6.00. Also, the pEC50 in experiment [2] was 6.00 to 6.70.

`CN(Cc1cc(C(F)(F)F)c2oc(-c3cccc(-c4ccc(F)cc4-c4nncn4C)c3)nc2c1)CC(C)(C)O` [AP-2, 1-(((2-(4′-Fluoro-2′-(4-methyl-4H-1,2,4-triazol-3-yl)-[1,1′-biphenyl]-3-yl)-7-(trifluoromethyl)benzo[d]oxazol-5-yl)methyl)(methyl)amino)-2-methylpropan-2-ol]: the pIC50 in experiment [1] was greater than 6.70; in experiment [3], 5.00 to 6.00. In addition, the pEC50 in experiment [2] was 6.00 to 6.70.

For `C[C@H]1CCCN(Cc2cc(C(F)(F)F)c3oc(-c4cccc(-c5ccc(C#N)cc5-c5nncn5C)c4)nc3c2)C1` [AQ-6, (S)-2-(4-Methyl-4H-1,2,4-triazol-3-yl)-3′-(5-((3-methylpiperidin-1-yl)methyl)-7-(trifluoromethyl)benzo[d]oxazol-2-yl)-[1,1′-biphenyl]-4-carbonitrile], the pIC50 in experiment [1] is greater than 6.70; in experiment [3], 5.00 to 6.00. In addition, the pEC50 in experiment [2] was 6.00 to 6.70.

Take `C[C@H](Cc1nncn1C)c1cccc(-c2nc3ccc(Br)c(C(F)(F)F)c3[nH]2)c1` [AV-9, (R)-6-Bromo-2-(3-(1-(4-methyl-4H-1,2,4-triazol-3-yl)propan-2-yl)phenyl)-7-(trifluoromethyl)-1H-benzo[d]imidazole]: the negative-log IC50 (pIC50) in experiment [1] is 6.00 to 6.70; in experiment [3], 4.30 to 5.00. Besides, the negative-log EC50 (pEC50) in experiment [2] was 5.00 to 6.00.
